Experimental data published in patent US20190008810A1, “METHOD FOR PREVENTION, TREATMENT AND ALLEVIATION OF INFECTIOUS DISEASES AND DISORDERS” (REPLICON HEALTH OY, priority 2016, published 2019).

Legend:
[1] = system: IPA mice (conjunctival epithelium, lacrimal gland, goblet cells); test: Intensified pathological attack (IPA) dry eye model in mice, Example 1a; type: in vivo; details: for decrease in the thickening of the conjunctiva compared to relevant control: 7-day IPA, statistically significant
Method: In this experiment, intensified pathological attacks towards the eye epithelium is used as a disease model for intensified infectious pressure. The protection of the DGA Activation is measured by inflammatory markers. Because the conjunctival epithelium faces outside environment, the conjunctiva was chosen as one important biomarker. In the following this dry eye disease (also known as keratoconjunctivitis sicca) model experiment is called as the intensified pathological attack model or IPA-model.
All animal experiments were carried out according to the Association for Research in Vision and Ophthalmology and the National Institute of Health (NIH) guidelines for the care and use of laboratory animals. The intensified pathological attack model (IPA-model) was induced to naïve seven-to-ten-week-old C57B1/B6J mice obtained from the vivarium at the University of Eastern Finland. In the experiment 4 cohorts of mice were tested, naïve wild-type mice with IPA (n=5), and IPA mice treated topically with either vehicle (n=5) or (topical) DGA (n=5), and additionally IPA treated mice with orally administered DGA with topical vehicle treatment (n=5). IPA was induced by a combination of scopolamine and exposure to a controlled adverse environment (low humidity, high temperature and high airflow for a period of 7 days) in the IPA-mice system. More detailed treatment and administrations were as follows: Group 1: Non-treated IPA mice, Group 2: IPA mice (topical application of PBS to one eye, the contralateral eye served as control), Group 3: IPA mice topical treatment with DGA (aqueous formulation to one eye, contralateral eye served as control), Group 4: IPA mice—systemic treatment with DGA (ad libitum with chow; topical application of PBS to one eye, the contralateral eye served as control).
The DGA Activation was induced be D-glyceric acid (in its calcium salt form). In the systemic administration, the DGA was mixed into chow ad libitum at the concentration of: 1) 65 mg/kg/day for the first 4 days, and at day 5 at the concentration of 130 mg/kg/day prior the dry-eye induction; 2) thereafter the concentration was 130 mg/kg/day for the whole follow-up period of 7 days. In the topical treatment, the DGA was administered topically, as aqueous formulation in PBS. […]
Tear volume was measured for groups 3 and 4 and later comparison results for group 2 were received. […] In addition, animals were monitored daily for general health status. The lacrimal glands were embedded into paraffin, sectioned, stained and analyzed for possible pathology.

[2] = 4-day healthy human nutritional test, blood bilirubin; type: in vivo; details: 5-6 mg/kg/twice a day
Method: S4 had already participated in 4-day healthy volunteer test with the DGA Activation. In that earlier non-acute DGA dosing experiment the last dose of D-glyceric acid mixed into water was received previous night, i.e. 10-12 hours before the blood test. In this test the positive effects of the DGA Activation in health/subclinical stress were observed. […] This was the case for all tested subjects including S1 in Examples 1b-1d (see Table 1e below).

cortisol, TSH, T4 = test: Blood cortisol, TSH and T4 in healthy human volunteers, Example 5a; type: in vivo
Method: Blood levels of cortisol, thyroid stimulating hormone (TSH) and thyroxin, i.e. thyroid hormone T4 (T4) from standard EDTA blood sample were measured. 0-control and 2 day follow up measurement were conducted at approximately 08.55 am and the same day, 1.5 hour follow up, at 10:25 am. All measurements were conducted in “half fasting” state, i.e. half of the normal breakfast eaten 1.5 hours before the collection of the blood sample, and the other “half” immediately after 0-control measurement. First measurement without the DGA Activation served as the 0-control for both follow up measurements with the DGA Activation. First “DGA measurement” was conducted after 1.5 hours from 0-control (“fast effect”) and the second after 2 days (“persistent effect”). […] Last dose was 300 mg of D-glyceric acid mixed into water (or 430 mg of D-glyceric acid calcium salt dehydrate mixed into water), and otherwise the daily dose was 2*225 mg D-glyceric acid calcium salt dehydrate mixed into water. Male volunteers S1 and S9 weigh 75 kg and 80 kg respectfully.

[3] = system: HO-1, GRHPR, PGC-1a and NRF1 pathway genes; test: Gene expression in peripheral leukocytes after 4.5-day administration, Example 5b; type: in vivo, human
Method: FIG. 13a: In this 4.5-day experiment samples of peripheral leukocytes were collected from standard blood sample of S1 and S9 in fasting condition (0 h), and 1 hour (1 h) after taking 75 grams of glucose (Glutole, Biofile Pharma, 330 ml) for glucose tolerance test. After the collection of the blood samples the leukocytes were immediately separated, and after separation immediately lysed by stop solution and stored in freezer in line with the instructions by the service provider.
Gene expression was measured from those peripheral leukocyte (=white blood cells). Additionally, basal (=0-Control) gene expression of all genes was later measured for S1. This was done using a different gene expression method for genome wide sequencing.
The doses used were 250 mg taken twice a day, in the morning and before going to bed. The last DGA dose was double in size (some 8 mg/kg), and it was taken in the same morning as the collection of blood samples. Relatively high dose and 2.5 hours to measurement was chosen to see clearer dose response in gene expression from peripheral leukocytes.
In the FIG. 13a it is shown that UTPfsAEM gene expressions are activated markedly in peripheral leukocytes after 4.5 day DGA Activation compared to 0-control. The analysis of selected genes was conducted both in fasting conditions and 1 h after glucose intake (“fed” in FIG. 13a)) and in acute dosing, i.e. only 2.5 hours from last DGA dose.

O=C(O)[C@H](O)CO [DGA, D-glyceric acid]
number of goblet cells vs 0-controls ([1]; DGA activation groups vs 0-controls): No meaningful differences | lacrimal gland pathology (inflammation) ([1]; systemic (group 4) vs placebo 0-control): reduces inflammation statistically significantly | decrease in the thickening of the conjunctiva compared to relevant control ([1]; systemic, mixed with chow 130 mg/kg/day): ~20% | decrease in the thickening of the conjunctiva compared to relevant control ([1]; topical eye drops 30 μg/ml, 5 μL 4× daily): ~20% | S-Bil-Kj, 4 day change from zero control ([2]; subject S1): −17.4% | S-Bil, 4 day change from zero control ([2]; subject S1, fasting blood, non-acute): −19.1% | S-Bil, 4 day change from zero control ([2]; subject S2): −22.8% | S-Bil-Kj, 4 day change from zero control ([2]; subject S2): −23.3% | S-Bil, 4 day change from zero control ([2]; subject S3): −58.1% | S-Bil-Kj, 4 day change from zero control ([2]; subject S3): −58.4% | S-Bil, 4 day change from zero control ([2]; subject S4): −12.6% | S-Bil-Kj, 4 day change from zero control ([2]; subject S4): −8.8% | TSH decline, fast effect (cortisol, TSH, T4; 1.5 hours): −24% | decline of blood cortisol, fast effect (cortisol, TSH, T4; 1.5 hours after dose, both S1 and S9): more than 22% | T4, average change from 0-control (cortisol, TSH, T4; S1 and S9): less than 1% | decrease in blood cortisol (cortisol, TSH, T4; S1 and S9): 20-40% | TSH decline (cortisol, TSH, T4; after 2 days): −13% | GRHPR gene expression ([3]; fasting and fed, after 4.5 days): upregulated very significantly | HO-1 gene expression ([3]; fasting and fed, after 4.5 days, 2.5 hours from last dose): upregulated very significantly | genes related to PGC-1a and NRF1 pathways ([3]; fasting, after 4.5 days vs 0-control): activated statistically very significantly | increase of HO-1 expression ([3]; peripheral leukocytes in vivo): more than 100% | decline of blood corticosterone compared to 0-Control (corticosterone, IL-6; 9 mg/kg of body weight/day of DGAcs in feed, 3 weeks, N=30, p-value=0.021): ~40% | fat formation (corticosterone, IL-6; 3-5 week feeding study, N=144): fat formation is not increased | average IL-6 levels compared to 0-control (corticosterone, IL-6; 21-28 days, not statistically significant, p-value=0.12): lower average IL-6 levels | late mortality (corticosterone, IL-6; earlier broiler chicken experiment without infection, 1-2% in other groups): no mortality in DGA groups
